Measurements as given in patent US20090181098A1, “Hmg-Co-a Reductase Inhibitor Enhancement of Bone and Cartilage” (OsteoScreen IP, LLC, priority 2006, published 2009).

How the values were obtained:
rat femur = assay: Biomechanical testing of intact femurs (three point bending); type: in vivo
Method: Three month old rats were dosed with vehicle or transdermal lovastatin, 1 mg/kg/day for 5 days. Four weeks after dosing, rats were euthanized and femurs removed and stored frozen. Samples were thawed to room temperature on the day of testing, and remaining soft tissue was removed. To obtain mechanical properties, the femurs were subjected to three point bending with an EnduraTEC mechanical testing system (Elf 3300, Bose Corporation, Minnetonka, Minn.). Each rat femur was horizontally positioned on the support rollers (which were 12 mm apart) such that the vertical, rounded indenter loaded the femur with the medial side in front and the anterior side down (i.e., bending occurred about the medial-lateral axis). The force-displacement curve was recorded as the indenter traveled at rate of 3 mm/min into femur midshaft. Structural properties were obtained directly from the load deformation curves.

femur fracture model = tested on: femur fracture model
From the text: In accordance with the study, the clinical focus involves creating uniform and reproducible fracture defects utilizing a pinned closed transverse rat femoral model chosen because it has been well defined and fully characterized by mechanical and histologic methods. Advantages of this model include reproducibility, defect uniformity, and a rapid 5 weeks to clinical union healing phase. The properties of the bioactive coating are investigated in preliminary studies in vitro and in vivo using the explanted calvarial culture and the local calvarial injection model including drug-release kinetics, degradation and stability. The aims of the study are: (1) to evaluate the effect of controlled-released locally administered lovastatin on callus formation, progression and fracture healing using X-ray analysis of fracture healing. At the end of the experiment, the fractured limb will be excised and X-rayed after removal of stabilizing pins. These X-rays will be assessed for evidence of healing of the fracture. They will be scored by 3 independent observers for healing of the fracture; (2) to evaluate the effect of controlled released lovastatin on biomechanical parameters by three-point bending and micro computer tomography (uCT); and (3) to evaluate by uCT bone microarchitecture at callus site and bone healing. […]

[1] = Plasma lovastatin levels after a single oral or dermal dose, estimated by HMG-CoA reductase inhibition assay; type: in vivo, rat
Method: The area under the plasma concentration-time curve (AUC0-24 hr) of lovastatin equivalence was calculated using the trapezoidal rule for both oral and dermal application of lovastatin. For oral administration, a suspension of lovastatin was prepared in 0.5% methylcellulose and administered by gavage. For dermal administration, lovastatin was mixed initially with 100% DMSO and in subsequent experiments, with hydrophilic petrolatum and applied to the back of the animals after shaving (area of application=6.45 cm^2). In later experiments, the dermal formulation was modified and a aqueous alkanolic gel with a carbomer-based formulation containing water, ethanol, Carbomer 940, cholesterol, BHA and TEA was used.

neonatal murine calvaria = assay: Neonatal murine calvarial explant culture, bone and cartilage formation; type: cell-based, mouse
Method: Four day old calvarial explant cultures were incubated with media containing scaffold material that releases 0, 0.4 or 8 μg/day. The extent of new cartilage is then quantitated by imaging analysis.
Experimental Design Four day old Swiss white pups were employed as they are generally a healthy mouse strain. Calvaria from 4-day old Swiss white mouse pup mice were dissected out and cut in half. The excised hemi-calvariae were placed on metal grids (at the surface) in 1 ml BGJ media with Fitton-Jackson modification BGJ media (Sigma) containing 0.1% BSA with glutamine. The bones are incubated at 37° C. in a 5% humidified incubator for a period of 24 h and then transferred to wells containing 1 ml media with test compounds and further incubated under the above conditions for 72-96 h. The bones are then removed, fixed in 10% buffered formalin for 24 h, decalcified in 14% EDTA overnight, embedded in paraffin and 4 μm-thick sections cut and stained with H&E.
Dosing. […] Calvaria are removed at day 7 and day 14. The media is changed every 3 days. Cartilage formation is assessed histologically.

[2] = tested on: ovariectomized (OVX) rats; assay: Effects of transdermal lovastatin on bone in ovariectomized rats (histomorphometry); type: in vivo, rat
Method: Following sacrifice, both femurs and tibiae were removed, cleaned of soft tissue, fixed in 10% formalin for 48 hours, and then stored in 70% ETOH and prepared for histology. Histomorphometric analysis was performed using a semiautomated Osteomeasure System (Osteometrics, Inc., Atlanta, Ga.) and digitizing pad and by following standard histomorphometric techniques. Bone volume, trabecular number, thickness and separation, cell number and dynamic parameters were determined as described previously by Parfitt et al. [Parfitt A M (1988) Bone histomorphometry: standardization of nomenclature, symbols and units. Summary of proposed system. J Bone Miner Res 4:1-5.]. Bone formation rates (BFR) and mineral apposition rates (MAR) were measured in plastic-embedded sections following demeclocycline and calcein injections (15 and 20 mg/kg/body weight respectively) given intraperitoneally at 10 and 4 days before sacrifice. Values for MAR were corrected for obliquity of the plane of section in cancellous bone. Rats were evaluated with a mouse densitometer, Piximus (GE Medical Systems); bone mineral density (BMD), calculated by dividing bone mineral content (g) by the projected bone area (cm^2), was assessed for the proximal third of the tibia at time 0 and at 5 weeks. Micro-computed tomography (μ-CT) analysis of the rat distal femur was kindly performed by Phil Salmon (Skyscan, Belgium). Bones were scanned using the Skyscan Model 1072 employing an x-ray tube voltage of 100 kV, and magnified to attain a pixel size of 10.13 μm. Data are expressed as the mean standard error (SEM). Statistical differences between groups were evaluated with one-way analysis of variance (ANOVA). […] P<0.05 were considered significant.

[3] = transdermal 1 mg/kg/day for 5 days, femurs four weeks after dosing
[4] = aqueous alkanolic gel, lowest dose tested

For `CC[C@H](C)C(=O)O[C@H]1C[C@@H](C)C=C2C=C[C@H](C)[C@H](CC[C@@H]3C[C@@H](O)CC(=O)O3)[C@H]21` [lovastatin], the “Increase in bending strength of femurs vs control” value (rat femur; dermal 1 mg/kg/day for 5 days) was 19%, the Bending strength (rat femur; [3]) was 165.2 ± 3 MPa and the Maximum force (rat femur; [3]) was 141.7 ± 3.4 N. For the same molecule, the Modulus of elasticity (rat femur; [3]) was 6379.9 ± 455.1 MPa, the Stiffness (rat femur; [3]) was 561.3 ± 29.5 N/mm and the “Lowest lovastatin amount tested giving a significant increase in radiographic score” value (femur fracture model; released from nanobeads at fracture site) was 0.2 µg/day. For the same molecule, the “Lovastatin release giving maximum radiographic score” value (femur fracture model; single injection of nanobeads at fracture site, 2 weeks) was 1.5 µg/day, the “Plasma levels, aqueous alkanolic gel compared with hydrophilic petrolatum” value ([1]; single dermal dose) was “higher plasma levels” and the “Time to peak plasma levels” value ([1]; single dermal dose in aqueous alkanolic gel) was “within the first hour”. The “AUC0-24 h, aqueous alkanolic gel relative to petrolatum formulation” value ([1]; single dermal dose, both doses tested (6.25 and 25 mg/kg)) was “more than double”, the “Plasma concentrations, dermal compared with oral” value ([1]; single dose 10 or 50 mg/kg, dermal in 100% DMSO vs gavage in 0.5% methylcellulose, 1, 3, 6, 24 h) was “greater, less variable and more prolonged” and the “Bone formation in cultures of neonatal murine calvaria” value (neonatal murine calvaria; 7 days after exposure) was “stimulates bone formation”. For the same molecule, the “Cartilage formation in cultures of neonatal murine calvaria” value (neonatal murine calvaria; 14 days after exposure, scaffold release 0.4 and 0.8 μg/24 h) was “stimulate cartilage formation in a dose response fashion”, the “Effective transdermal dose as fraction of the dose required orally for an effect on bone formation” value ([2]; 0.01 mg/kg transdermal vs oral dose of Mundy et al. 1999) was “approximately 1/1000” and the Bone formation rates ([2]; 5 days of transdermal exposure, 0.01 mg/kg body weight) was “markedly increased”. For the same molecule, the Trabecular number [2, 4] was “significant increase in trabecular number”, the Trabecular separation [2, 4] was “significant decrease in trabecular separation” and the “Increase in bone volume vs OVX rats treated with vehicle” value ([2]; dermal 1 mg/kg/day, 5 days (FIG. 4)) was 50%. For the same molecule, the “Bone formation rates (BFR)” value ([2]; dermal, 5 day administration (FIG. 6)) was “significant increase”, the “OVX-induced changes in trabecular thickness, number and separation” value ([2]; dermal, 5 days (FIG. 5)) was “partly prevented these changes” and the “Bone volume by histomorphometry” value ([2]; dermal, aqueous alkanolic gel, 0.01 to 0.5 mg/kg/day for 5 days, significant at 0.01 mg/kg/day) was “increased bone volume at all the doses tested”. The “Increase in bone volume vs vehicle-treated OVX rats” value ([2]; dermal, hydroalcoholic gel, 0.01 to 0.5 mg/kg/day for 5 days, proximal tibiae, four weeks after dosing) was greater than 40%, the “Increase in bone volume vs vehicle-treated OVX rats” value ([2]; dermal, hydrophilic petrolatum, 5 days, even at the lowest dose (FIG. 3b)) was greater than 50% and the “Cancellous bone connectivity (trabecular thickness, number, separation, star volume, fractal dimension, pattern factor)” value ([2]; transdermal) was “increased cancellous bone connectivity”.
